From article PMC11951083, “Highly Specific Miniaturized Fluorescent Monoacylglycerol Lipase Probes Enable Translational Research” (Journal of the American Chemical Society, 2025)

Key:
BZD (central) = BZD (central) (agonist radioligand); settings: 10 µM
5-HT transporter (h) = 5-HT transporter (h) (Homo sapiens, UniProt P31645); test: 5-HT transporter (h) (antagonist radioligand); settings: read-out: Inhibition 5-HT transporter (h) (antagonist radioligand)
ACE (h) = ACE (h) (Homo sapiens, UniProt P12821); test: ACE (h); settings: read-out: Inhibition ACE (h)
GSK3alpha (h) = GSK3alpha (h) (Homo sapiens, UniProt P49840); test: GSK3alpha (h); settings: read-out: Inhibition GSK3alpha (h)
GSK3alpha (h), sequence (P49840 whole entry): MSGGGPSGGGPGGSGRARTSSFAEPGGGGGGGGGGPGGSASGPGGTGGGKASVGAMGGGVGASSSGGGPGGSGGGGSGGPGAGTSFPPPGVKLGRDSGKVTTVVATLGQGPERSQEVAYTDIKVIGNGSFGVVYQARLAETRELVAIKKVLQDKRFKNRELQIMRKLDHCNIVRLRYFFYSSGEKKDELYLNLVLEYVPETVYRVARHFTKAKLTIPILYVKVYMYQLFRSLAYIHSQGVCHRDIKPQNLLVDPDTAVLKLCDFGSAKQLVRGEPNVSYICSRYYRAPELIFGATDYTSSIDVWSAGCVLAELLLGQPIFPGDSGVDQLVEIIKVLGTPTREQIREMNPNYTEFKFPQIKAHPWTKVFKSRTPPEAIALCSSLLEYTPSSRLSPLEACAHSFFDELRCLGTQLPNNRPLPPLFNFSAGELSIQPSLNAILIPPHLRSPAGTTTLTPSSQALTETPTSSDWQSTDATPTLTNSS

alpha2A (h) = molecular target: T1, alpha2A (h) (Homo sapiens, UniProt P08913); test: alpha2A (h) (antagonist radioligand); settings: read-out: Inhibition alpha2A (h) (antagonist radioligand)
T1 sequence (P08913 1-465): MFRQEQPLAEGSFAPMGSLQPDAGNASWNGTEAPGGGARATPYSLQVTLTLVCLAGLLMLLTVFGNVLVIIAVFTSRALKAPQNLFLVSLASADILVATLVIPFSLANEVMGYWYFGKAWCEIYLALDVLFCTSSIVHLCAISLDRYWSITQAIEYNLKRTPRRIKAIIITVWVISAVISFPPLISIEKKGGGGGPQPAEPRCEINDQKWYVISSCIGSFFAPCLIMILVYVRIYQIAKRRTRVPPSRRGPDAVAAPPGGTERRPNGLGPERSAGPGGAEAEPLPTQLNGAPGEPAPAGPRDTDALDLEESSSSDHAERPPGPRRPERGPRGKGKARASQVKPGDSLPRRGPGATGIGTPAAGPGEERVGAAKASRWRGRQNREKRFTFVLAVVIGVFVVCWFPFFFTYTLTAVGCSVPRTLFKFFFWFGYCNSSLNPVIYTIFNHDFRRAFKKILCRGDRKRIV

5-HT1A (h) = molecular target: T2, 5-HT1A (h) (Homo sapiens, UniProt P08908); test: 5-HT1A (h) (agonist radioligand); settings: read-out: Inhibition 5-HT1A (h) (agonist radioligand)
T2 sequence (P08908 1-422): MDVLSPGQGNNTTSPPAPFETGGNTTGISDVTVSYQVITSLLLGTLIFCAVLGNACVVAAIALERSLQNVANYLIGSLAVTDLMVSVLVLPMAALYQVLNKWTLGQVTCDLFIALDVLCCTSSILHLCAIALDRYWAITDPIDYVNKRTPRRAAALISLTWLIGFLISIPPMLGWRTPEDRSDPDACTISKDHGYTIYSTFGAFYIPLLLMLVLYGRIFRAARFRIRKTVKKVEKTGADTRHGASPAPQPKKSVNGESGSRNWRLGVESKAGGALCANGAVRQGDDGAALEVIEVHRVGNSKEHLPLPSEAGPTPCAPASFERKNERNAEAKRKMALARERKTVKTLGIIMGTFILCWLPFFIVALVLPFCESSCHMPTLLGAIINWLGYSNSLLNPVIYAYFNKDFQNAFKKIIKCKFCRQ

[1] = molecular target: glycine (strychnine-insensitive) (Rattus norvegicus, UniProt P35439); test: glycine (strychnine-insensitive) (antagonist radioligand); settings: read-out: Inhibition glycine (strychnine-insensitive) (antagonist radioligand)
glycine (strychnine-insensitive), sequence (P35439 394-800): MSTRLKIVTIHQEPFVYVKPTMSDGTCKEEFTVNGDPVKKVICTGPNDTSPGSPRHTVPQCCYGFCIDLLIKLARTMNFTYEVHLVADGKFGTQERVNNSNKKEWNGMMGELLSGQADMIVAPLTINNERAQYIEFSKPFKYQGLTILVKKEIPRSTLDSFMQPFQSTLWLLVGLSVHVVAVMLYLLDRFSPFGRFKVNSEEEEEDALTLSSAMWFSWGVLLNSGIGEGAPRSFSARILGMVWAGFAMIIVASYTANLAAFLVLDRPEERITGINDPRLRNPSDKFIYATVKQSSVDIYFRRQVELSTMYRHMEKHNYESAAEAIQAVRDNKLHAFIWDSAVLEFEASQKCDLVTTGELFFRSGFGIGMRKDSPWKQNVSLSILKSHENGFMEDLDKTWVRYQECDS

[2] = molecular target: norepinephrine transporter (h) (Homo sapiens, UniProt P23975); test: norepinephrine transporter (h) (antagonist radioligand); settings: read-out: Inhibition norepinephrine transporter (h) (antagonist radioligand)
norepinephrine transporter (h), sequence (P23975 whole entry): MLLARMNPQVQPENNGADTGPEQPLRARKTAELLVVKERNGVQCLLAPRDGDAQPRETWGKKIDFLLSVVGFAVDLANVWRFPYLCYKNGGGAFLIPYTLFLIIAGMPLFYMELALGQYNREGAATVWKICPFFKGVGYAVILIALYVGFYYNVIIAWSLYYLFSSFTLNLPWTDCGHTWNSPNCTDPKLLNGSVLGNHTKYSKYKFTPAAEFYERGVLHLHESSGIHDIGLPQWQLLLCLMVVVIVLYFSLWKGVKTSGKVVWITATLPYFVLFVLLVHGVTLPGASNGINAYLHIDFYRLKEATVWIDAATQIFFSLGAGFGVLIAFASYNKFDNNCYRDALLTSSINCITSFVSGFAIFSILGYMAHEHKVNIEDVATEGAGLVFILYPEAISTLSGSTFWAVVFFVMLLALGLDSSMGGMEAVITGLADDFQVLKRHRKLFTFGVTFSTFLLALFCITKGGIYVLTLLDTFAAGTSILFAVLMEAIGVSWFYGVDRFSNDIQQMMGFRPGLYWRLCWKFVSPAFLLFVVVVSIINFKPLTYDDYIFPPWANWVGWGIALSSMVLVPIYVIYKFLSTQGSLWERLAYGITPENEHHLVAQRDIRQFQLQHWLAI

[3] = molecular target: N neuronal alpha4beta2 (h) (Homo sapiens, UniProt P17787+P43681); test: N neuronal alpha4beta2 (h) (agonist radioligand); settings: read-out: Inhibition N neuronal alpha4beta2 (h) (agonist radioligand)
N neuronal alpha4beta2 (h), sequence (P43681 29-627 limits assumed): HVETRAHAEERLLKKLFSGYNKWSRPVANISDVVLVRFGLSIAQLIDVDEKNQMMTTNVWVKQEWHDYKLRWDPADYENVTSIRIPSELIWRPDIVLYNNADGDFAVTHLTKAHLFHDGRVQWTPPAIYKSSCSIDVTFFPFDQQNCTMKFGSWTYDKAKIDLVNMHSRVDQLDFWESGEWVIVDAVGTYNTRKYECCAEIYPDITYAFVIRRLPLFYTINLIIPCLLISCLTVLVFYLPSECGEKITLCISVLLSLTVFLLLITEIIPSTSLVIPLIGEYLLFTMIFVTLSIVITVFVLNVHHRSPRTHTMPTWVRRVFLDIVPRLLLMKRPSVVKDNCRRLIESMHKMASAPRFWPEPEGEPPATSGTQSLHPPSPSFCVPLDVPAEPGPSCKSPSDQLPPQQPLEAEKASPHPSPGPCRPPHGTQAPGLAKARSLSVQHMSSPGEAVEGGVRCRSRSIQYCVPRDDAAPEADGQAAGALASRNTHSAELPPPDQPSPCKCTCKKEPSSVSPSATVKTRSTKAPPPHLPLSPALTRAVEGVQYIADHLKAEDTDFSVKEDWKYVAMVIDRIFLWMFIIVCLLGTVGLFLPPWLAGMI
N neuronal alpha4beta2 (h), sequence (P17787 26-502): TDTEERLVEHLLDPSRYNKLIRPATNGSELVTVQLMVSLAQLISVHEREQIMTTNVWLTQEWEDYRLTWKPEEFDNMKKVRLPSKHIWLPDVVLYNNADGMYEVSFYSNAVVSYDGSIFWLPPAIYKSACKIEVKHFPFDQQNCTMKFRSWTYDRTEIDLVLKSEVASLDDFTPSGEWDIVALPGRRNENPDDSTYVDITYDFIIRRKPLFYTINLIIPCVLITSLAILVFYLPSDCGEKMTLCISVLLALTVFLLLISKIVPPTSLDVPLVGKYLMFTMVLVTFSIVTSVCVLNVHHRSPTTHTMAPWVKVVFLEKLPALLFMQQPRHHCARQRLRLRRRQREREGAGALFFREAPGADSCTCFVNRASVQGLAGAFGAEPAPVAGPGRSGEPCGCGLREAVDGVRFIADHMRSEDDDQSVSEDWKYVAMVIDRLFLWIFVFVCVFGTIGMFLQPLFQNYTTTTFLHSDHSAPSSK

GR (h) = molecular target: T3, GR (h) (Homo sapiens, UniProt P04150); test: GR (h) (agonist radioligand); settings: read-out: Inhibition GR (h) (agonist radioligand)
T3 sequence (P04150 1-777): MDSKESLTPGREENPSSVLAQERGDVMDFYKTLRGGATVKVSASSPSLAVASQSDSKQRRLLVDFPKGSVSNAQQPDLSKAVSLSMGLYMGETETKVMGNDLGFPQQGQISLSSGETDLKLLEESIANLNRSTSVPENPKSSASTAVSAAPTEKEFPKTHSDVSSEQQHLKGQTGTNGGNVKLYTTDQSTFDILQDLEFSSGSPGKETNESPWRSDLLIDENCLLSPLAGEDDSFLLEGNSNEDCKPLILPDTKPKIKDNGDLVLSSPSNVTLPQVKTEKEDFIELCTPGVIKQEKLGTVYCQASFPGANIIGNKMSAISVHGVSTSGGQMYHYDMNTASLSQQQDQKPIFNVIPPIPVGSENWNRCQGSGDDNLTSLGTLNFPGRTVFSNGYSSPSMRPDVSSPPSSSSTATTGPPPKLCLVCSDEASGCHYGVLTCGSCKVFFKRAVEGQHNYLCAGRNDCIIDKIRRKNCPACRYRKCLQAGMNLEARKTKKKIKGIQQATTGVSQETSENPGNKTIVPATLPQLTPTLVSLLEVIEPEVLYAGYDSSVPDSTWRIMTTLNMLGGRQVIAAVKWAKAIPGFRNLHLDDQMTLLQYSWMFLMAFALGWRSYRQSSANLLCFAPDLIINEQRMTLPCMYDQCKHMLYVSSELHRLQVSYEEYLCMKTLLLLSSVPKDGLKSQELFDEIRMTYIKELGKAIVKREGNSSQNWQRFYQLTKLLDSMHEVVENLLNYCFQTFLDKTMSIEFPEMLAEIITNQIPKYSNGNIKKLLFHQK

D1 (h) = D1 (h) (Homo sapiens, UniProt P21728); test: D1 (h) (antagonist radioligand); settings: read-out: Inhibition D1 (h) (antagonist radioligand)
D1 (h), sequence (P21728 whole entry): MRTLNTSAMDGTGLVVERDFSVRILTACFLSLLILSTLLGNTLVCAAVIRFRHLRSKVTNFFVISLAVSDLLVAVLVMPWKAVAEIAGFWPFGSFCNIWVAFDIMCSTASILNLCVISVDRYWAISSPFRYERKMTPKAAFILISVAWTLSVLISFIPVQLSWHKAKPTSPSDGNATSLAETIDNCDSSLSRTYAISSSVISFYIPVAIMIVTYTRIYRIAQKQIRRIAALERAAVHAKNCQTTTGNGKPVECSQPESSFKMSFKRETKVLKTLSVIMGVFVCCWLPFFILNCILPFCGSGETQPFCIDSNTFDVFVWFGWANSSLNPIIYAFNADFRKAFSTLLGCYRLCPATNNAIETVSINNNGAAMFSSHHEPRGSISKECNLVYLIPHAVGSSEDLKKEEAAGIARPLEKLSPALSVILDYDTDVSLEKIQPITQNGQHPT

CB1 (h) = CB1 (h) (Homo sapiens, UniProt P21554); test: CB1 (h) (agonist radioligand); settings: read-out: Inhibition CB1 (h) (agonist radioligand)
[4] = molecular target: xanthine oxidase/ superoxide O2- scavenging (Bos taurus, UniProt P80457); test: xanthine oxidase/ superoxide O2- scavenging; settings: read-out: Inhibition xanthine oxidase/ superoxide O2- scavenging
xanthine oxidase/ superoxide O2- scavenging, sequence (P80457 whole entry): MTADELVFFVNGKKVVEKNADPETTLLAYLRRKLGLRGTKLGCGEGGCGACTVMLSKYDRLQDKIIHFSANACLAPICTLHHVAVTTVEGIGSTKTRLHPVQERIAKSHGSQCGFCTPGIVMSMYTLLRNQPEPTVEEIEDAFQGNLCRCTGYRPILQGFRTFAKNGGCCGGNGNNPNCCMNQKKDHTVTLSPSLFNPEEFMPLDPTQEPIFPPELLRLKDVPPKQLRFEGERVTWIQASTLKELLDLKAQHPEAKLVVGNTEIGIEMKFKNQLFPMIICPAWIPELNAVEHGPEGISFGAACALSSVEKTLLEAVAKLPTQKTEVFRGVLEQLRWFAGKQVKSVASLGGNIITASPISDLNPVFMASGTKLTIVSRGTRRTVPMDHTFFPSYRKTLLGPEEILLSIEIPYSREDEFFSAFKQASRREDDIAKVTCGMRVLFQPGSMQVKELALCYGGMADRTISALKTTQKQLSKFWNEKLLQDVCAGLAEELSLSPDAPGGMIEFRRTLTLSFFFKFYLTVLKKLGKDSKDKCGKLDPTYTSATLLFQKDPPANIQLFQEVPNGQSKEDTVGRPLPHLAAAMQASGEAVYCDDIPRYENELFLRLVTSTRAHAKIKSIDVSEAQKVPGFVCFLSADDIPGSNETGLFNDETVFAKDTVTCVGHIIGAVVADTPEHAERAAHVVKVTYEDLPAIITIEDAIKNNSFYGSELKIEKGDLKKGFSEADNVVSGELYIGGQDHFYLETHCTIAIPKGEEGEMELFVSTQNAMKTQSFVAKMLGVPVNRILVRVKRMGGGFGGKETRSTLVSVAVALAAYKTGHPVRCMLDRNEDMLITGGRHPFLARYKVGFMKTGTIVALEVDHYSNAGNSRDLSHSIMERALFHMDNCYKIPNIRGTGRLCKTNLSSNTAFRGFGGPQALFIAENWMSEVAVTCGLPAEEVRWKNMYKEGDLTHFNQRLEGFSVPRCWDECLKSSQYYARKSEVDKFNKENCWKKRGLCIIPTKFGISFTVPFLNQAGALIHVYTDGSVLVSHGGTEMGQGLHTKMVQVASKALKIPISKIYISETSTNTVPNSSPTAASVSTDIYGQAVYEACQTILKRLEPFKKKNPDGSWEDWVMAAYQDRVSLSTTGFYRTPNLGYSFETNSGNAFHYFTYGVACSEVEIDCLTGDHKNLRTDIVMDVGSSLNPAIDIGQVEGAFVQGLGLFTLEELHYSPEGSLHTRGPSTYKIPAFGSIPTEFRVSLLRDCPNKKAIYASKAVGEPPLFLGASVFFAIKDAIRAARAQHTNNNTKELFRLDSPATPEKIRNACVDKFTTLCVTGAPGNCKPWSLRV

5-HT transporter (h), sequence (P31645 whole entry): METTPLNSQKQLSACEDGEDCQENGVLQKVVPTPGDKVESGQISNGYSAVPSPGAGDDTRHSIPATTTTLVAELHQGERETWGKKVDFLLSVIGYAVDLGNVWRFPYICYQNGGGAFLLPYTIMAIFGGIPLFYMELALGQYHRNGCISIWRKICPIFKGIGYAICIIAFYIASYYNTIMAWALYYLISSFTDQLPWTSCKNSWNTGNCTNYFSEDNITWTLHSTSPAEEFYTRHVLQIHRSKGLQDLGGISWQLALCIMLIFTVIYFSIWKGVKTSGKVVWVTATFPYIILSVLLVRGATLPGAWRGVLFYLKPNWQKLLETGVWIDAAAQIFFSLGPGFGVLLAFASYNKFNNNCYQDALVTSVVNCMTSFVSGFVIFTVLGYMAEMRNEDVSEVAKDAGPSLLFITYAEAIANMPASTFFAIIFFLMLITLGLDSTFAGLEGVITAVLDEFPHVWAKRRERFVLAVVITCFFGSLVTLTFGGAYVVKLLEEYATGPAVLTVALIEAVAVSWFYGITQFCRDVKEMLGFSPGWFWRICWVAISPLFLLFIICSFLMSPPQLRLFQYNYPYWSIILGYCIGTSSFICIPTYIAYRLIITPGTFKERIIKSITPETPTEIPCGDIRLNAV

SMILES	Inhibition BZD (central) (agonist radioligand) (BZD (central))	inhibition at 10 µM (5-HT transporter (h)) [%]	inhibition at 10 µM (ACE (h)) [%]	inhibition at 10 µM (GSK3alpha (h)) [%]	inhibition at 10 µM (alpha2A (h)) [%]	inhibition at 10 µM (5-HT1A (h)) [%]	inhibition at 10 µM [1] [%]	inhibition at 10 µM [2] [%]	inhibition at 10 µM [3] [%]	inhibition at 10 µM (GR (h)) [%]	inhibition at 10 µM (D1 (h)) [%]	inhibition at 10 µM (CB1 (h)) [%]	inhibition at 10 µM [4] [%]
O=C(OC(C(F)(F)F)C(F)(F)F)N1CC2(CC(CC3=C4C=CC(c5ccc[nH]5)=[N+]4[B-](F)(F)n4cccc43)C2)C1 [Compound 2a]	0,90%	-12.9	-4.4	-5.8	-0.9	-5.5	-2	6.3	4.2	26.3	6.1	6.3	7.8
O=C1CO[C@H]2CCN(C(=O)N3CC4(CC(CC5=C6C=CC(c7ccc[nH]7)=[N+]6[B-](F)(F)n6cccc65)C4)C3)C[C@H]2N1 [Compound 4a]	-4,10%	-9.6	-21.2	-24.8	7.4	-2.4	3.1	12.2	-0.6	48.1	7.5	-2.7	24.1
O=C(O[C@H](CO)C(F)(F)F)N1CC2(CC(CC3=C4C=CC=[N+]4[B-](F)(F)n4cccc43)C2)C1 [Compound 1]	-11,90%	13	-10.4	0.3	11.7	0	-6.7	7.4	-18.3	13.9	8.1	4.4	-29.7
O=C(OC(C(F)(F)F)C(F)(F)F)N1CC2(CC(CC3=C4C=CC=[N+]4[B-](F)(F)n4cccc43)C2)C1 [Compound 2]	-27,70%	-4.8	-15.8	-3.4	-2.2	-29.4	6.5	-0.5	-1.7	9.1	-1.2	-16.1	1.8
O=C(N1CC2(CC(CC3=C4C=CC=[N+]4[B-](F)(F)n4cccc43)C2)C1)N1CC2(CC(n3cnc(C4CC4)n3)C2)C1 [Compound 5]	-16,30%	56.5	-21.1	-1.8	-8.9	2.4	-20.3	8.6	-16.6	17.1	7.3	9.9	-16.6
